Results: patent US20240350575A1, “PLANT EXTRACT FOR ALLEVATING PULMONARY FIBROSIS, AND PREPARATION METHOD AND USE THEREOF” (Guangdong GreenTech Lemon Innovations Co., Ltd., priority 2023, published 2024)

How the values were obtained:
Assay type in all cases: in vivo, SD rats
[1] = test system: rat models of pulmonary fibrosis; assay: Body weight in bleomycin-induced rat models of pulmonary fibrosis
Description: (§1) The present experimental example explored the influence of the plant extract solution prepared in Embodiments 1-3 on the body weight and lung coefficient of rats. The method was as follows:
(§2) 80 healthy SD rats including half males and half females with a body weight of 230 g±10 g were selected and divided into a blank group, a model group, embodiment group 1, embodiment group 2, embodiment group 3, comparative example group 1, comparative example group 2 and a positive control group, each group consisting of 10 rats. After the rats in each group were raised regularly for one week, each rat was intraperitoneally injected with 4% chloral hydrate at an injection dose of 10 ml/kg. The anesthetized rats were fixed in a supine position, and the rat necks were subjected to hair removal, disinfected with iodine alcohol, and longitudinally cut to expose tracheas. Except for the blank group, the rats in each group were pierced with an injector by 1 cm toward the heart through a gap between two tracheal cartilage rings, and after resistance-free withdrawal, bleomycin was injected into the trachea at a dose of 5 mg/kg. The blank group was injected with an equal volume of normal saline. Immediately after injection, the rats were rotated upright for 5 min to fully distribute the medicament in the lungs. Various layers of tissues were sutured, and local alcohol disinfection was performed. 24 hours after modeling, the rats in the blank group and the model group were intragastrically administered with normal saline at a dose of 5 mL/kg every day, the rats in the positive control group were intragastrically administered with prednisone acetate at a dose of 5 mL/kg every day, and the rats in embodiment groups 1-3 and comparative example groups 1-2 were intragastrically administered with corresponding plant extract at a dose of 5 mL/kg continuously for 28 d. During this period, the rats in each group were raised according to a conventional method.
(1) Body weight: weighed the rats in each group on the day of intragastric administration, and weighed the rats in each group every 7 d.

[2] = test system: rat models of pulmonary fibrosis; assay: Lung coefficient in bleomycin-induced rat models of pulmonary fibrosis; conditions: wet lung weight/body weight x100%, bleomycin rats, intragastric 5 mL/kg daily
Description: as §1
as §2, with “24 hours after modeling, the rats in the blank group and the model group were intragastrically administered with normal saline at a dose of 5 mL/kg every day, the rats in the positive control group were intragastrically administered with prednisone acetate at a dose of 5 mL/kg every day, and the rats in embodiment groups 1-3 and comparative example groups 1-2 were intragastrically administered with corresponding plant extract at a dose of 5 mL/kg continuously for 28 d. During this period, the rats in each group were raised according to a conventional method.” left out

[3] = test system: rat models of pulmonary fibrosis; assay: Hydroxyproline content in lung tissues of rat models of pulmonary fibrosis; conditions: lung tissue, bleomycin rats, after intragastric administration 5 mL/kg daily for 28 d
Method: as §2, with “24 hours after modeling, the rats in the blank group and the model group were intragastrically administered with normal saline at a dose of 5 mL/kg every day, the rats in the positive control group were intragastrically administered with prednisone acetate at a dose of 5 mL/kg every day, and the rats in embodiment groups 1-3 and comparative example groups 1-2 were intragastrically administered with corresponding plant extract at a dose of 5 mL/kg continuously for 28 d. During this period, the rats in each group were raised according to a conventional method.” left out

Structure (SMILES): CC(=O)OCC(=O)[C@@]1(O)CC[C@H]2[C@@H]3CCC4=CC(=O)C=C[C@]4(C)[C@H]3C(=O)C[C@@]21C [Positive control group, prednisone acetate]
- Initial weight ([1]; baseline, day of first intragastric administration, 24 h after bleomycin 5 mg/kg intratracheal): 228.1 g
- Weight on the 7th day ([1]; bleomycin rats, intragastric 5 mL/kg daily, day 7): 253.2 g
- Weight on the 14th day ([1]; bleomycin rats, intragastric 5 mL/kg daily, day 14): 260.7 g
- Weight on the 21st day ([1]; bleomycin rats, intragastric 5 mL/kg daily, day 21): 267.6 g
- Weight on the 28th day ([1]; bleomycin rats, intragastric 5 mL/kg daily, day 28): 273.2 g
- Lung coefficient on the 14th day ([2]; day 14): 0.568%
- Lung coefficient on the 28th day ([2]; day 28): 0.594%
- Hydroxyproline content [3]: 0.847 µg/mg
